The record followed here is patent US20250223303A1, “TRICYCLIC BORONIC ACID DERIVATIVE, AND PREPARATION METHOD THEREFOR AND APPLICATION THEREOF” (priority 2021, published 2025).

One may read the MIC as the smallest concentration in the dilution series that meets the test's criterion for growth inhibition. What is called IC50 is the concentration that gives 50% inhibition. Low values mean higher potency, high ones lower potency.

The subject of assay [1] is Acinetobacter baumannii ARLG-1809 OXA-23. The assay is described as follows: MIC test of compounds in combination with antibiotics, Acinetobacter baumannii ARLG-1809. The note with it: Acinetobacter baumannii, ARLG1809OXA23.
Description: (§15) 2-Fold gradient dilution of antibiotics: 300 μL of CAMHVIB medium was added to columns 2-12 of a 96-deep well plate. In column 1, 24 μL of antibiotic stock solution and 576 µL of CAMHB medium were added and mixed well, with a concentration of 512 μg/mL. 300 µL of antibiotic solution was transferred from the column 1 to the second column and mixed well. The process was repeated until column 11, and the column 12 was a blank control.
(§16) Dilution of combined compounds: the compound was diluted 400-fold to 32 μg/ml with CAMHB medium.
(§17) Working solution aliquoting: 25 μL of antibiotics was aliquoted into the 96-U bottom plate with a pipette, and 25 μL of combined compound was added to each well. If antibiotics were used alone, 25 μL of CAMHB medium was added.
(§18) Inoculum solution preparation: 5-6 single colonies were selected from the plate and suspended in normal saline. The bacterial suspension was adjusted to 0.2 (i.e., 0.5 McFarland turbidity, with a bacterial concentration was about 1 to 2×10^8 CFU/mL) with a turbidity meter. The bacterial suspension was diluted 100-fold with CAMHB medium for later use.
(§19) Inoculation: 50 μL of inoculum solution was transferred to the above 50 μL compound plate with a pipette.
(§20) Culture: The 96-U bottom plate was placed in an incubator at 37° C. for 18 to 20 h.
Assay [2] relates to Acinetobacter baumannii ARLG-1791 OXA-23. The assay is described as follows: MIC test of compounds in combination with antibiotics, Acinetobacter baumannii ARLG-1791. The note with it: Acinetobacter baumannii, ARLG1791OXA23.
Description: as §15, §16, §17, §18, §19, §20
Assay [3] has as its system Acinetobacter baumannii ARLG-1852 OXA-23. The assay is described as follows: MIC test of compounds in combination with antibiotics, Acinetobacter baumannii ARLG-1852. Conditions: Acinetobacter baumannii, ARLG1852OXA23.
Description: as §15, §16, §17, §18, §19, §20
Assay [4] has as its system Acinetobacter baumannii WX-AB005. The assay is described as follows: MIC test of compounds in combination with antibiotics, Acinetobacter baumannii WX-AB005. Conditions: Acinetobacter baumannii, WXAB005.
Description: as §15, §16, §17, §18, §19, §20
In assay [5] the test system is Escherichia coli ARLG 2829. The assay is described as follows: MIC test of compounds in combination with antibiotics, Escherichia coli ARLG 2829. The note with it: Escherichia coli, ARLG2829.
Assay [6] concerns Acinetobacter baumannii ARLG-1853 OXA-23. Briefly: MIC test of compounds in combination with antibiotics, Acinetobacter baumannii ARLG-1853. Conditions: Acinetobacter baumannii, ARLG1853OXA23.
Description: as §15, §16, §17, §18, §19, §20
The test system of assay [7] is Acinetobacter baumannii WX-AB013. Briefly: MIC test of compounds in combination with antibiotics, Acinetobacter baumannii WX-AB013. Conditions: Acinetobacter baumannii, WXAB013.
Description: as §15, §16, §17, §18, §19, §20
Assay [8] relates to Klebsiella pneumoniae ATCC BAA-2470. Briefly: MIC test of compounds in combination with antibiotics, Klebsiella pneumoniae ATCC BAA-2470. The note with it: Klebsiella pneumoniae, ATCCBAA2470.
Description: (§21) Strain preparation: the strains to be tested were streaked from glycerol tube at −80° C. onto Mueller Hinton II Agar plates. The plates were then placed in a 37° C. incubator and cultured for 18-24 hours.
(§22) Media preparation: CAMHB (Mueller Hinton II Broth): 22 g of powder was dissolved in 1 L of purified water and sterilized at 121° C. for 10 min for use. Saline: 8.5 g NaCl was dissolved in 1 L of pure water and sterilized at 121° C. for 30 min for use.
(§23) Preparation of compound and antibiotic stock solutions: the compound and antibiotic were dissolved in DMSO or water to 12.8 mg/mL.
as §15, §16, §17, §18, §19, §20
(§24) After the incubation, bacterial growth was visually observed, and the test plate was photographed and recorded.
The subject of assay [9] is Klebsiella pneumoniae ATCC BAA-1705. The assay is described as follows: MIC test of compounds in combination with antibiotics, Klebsiella pneumoniae ATCC BAA-1705. Conditions: Klebsiella pneumoniae, ATCCBAA1705.
Assay [10] has as its system Klebsiella pneumoniae ARLG 1196. Briefly: MIC test of compounds in combination with antibiotics, Klebsiella pneumoniae ARLG 1196. The note with it: Klebsiella pneumoniae, ARLG1196.
Description: as §21, §22, §23, §15, §16, §17, §18, §19, §20, §24
The target of assay [11] is Ampc (UniProt P24735). Briefly: Enzyme activity test (FC5 fluorescent substrate), AmpC. Type of assay: biochemical. Conditions: enzyme 25 pM, substrate FC5 15 μM. The method, then: (§1) Compound stock solution: the compound was prepared as a 50 mM DMSO stock solution. […] After aliquoting, the compound stock solutions were stored at −20° C.
(§2) Preparation and storage of antibiotic substrate stock solution: antibiotic fluorescent substrate FC5 was synthesized internally and prepared as a 2 mM stock solution, which was stored at −20° C. after aliquoting.
(§3) Storage of β-lactamases: each […] was synthesized by GenScript Biotech Co., Ltd., and stored at −80° C. after aliquoting to avoid repeated freezing and thawing.
(§4) Preparation of enzyme activity reaction buffer: SBL buffer: PBS pH 7.4, 0.01% (v/v) Triton X-100; MBL buffer: 50 Mm HEPES in PBS pH 7.2, 1 μM ZnSO4, 1 μg/mL BSA, 0.010% v/v Triton X-100
(§5) a) The compound to be tested and buffer were taken out and warmed to room temperature.
(§6) b) Each compound was diluted with DMSO and buffer to the initial experimental concentration (Table 2), and then the compound was diluted 3-fold for a total of 10 concentrations.
(§7) c) Diluted compounds were added to wells 1 to 20 of a 384-well black plate at 2 replicate wells per concentration, 5 μL per well. 5 µL of DMSO was added to wells 21 to 24.
(§8) d) Each enzyme was diluted to the experimental concentration (Table 2) in SBL and MBL buffers, and finally 35 μL/well was added, with a total of 22 wells. 35 μL buffer was added to wells 23 to 24. Wells 21 to well 22 served as the maximum test values (Max), while wells 23 to 24 were designated as the minimum test values (Min).
(§9) e) The 384-well plate was centrifuged quickly and incubated for 10 minutes at room temperature.
(§10) f) The antibiotic substrate FC5 was diluted in buffer to the experimental concentration of each enzyme (Table 2).
(§11) g) The incubated 384-well plate was taken out and FC-5 was added to wells […]. The 384-well plate was centrifuged rapidly and promptly transferred to a microplate reader for reading.
(§12) h) The fluorescence intensity was measured at 355 nm excitation light/460 nm emission light in the microplate reader, and the fluorescence intensity was measured every three minutes for a total of 10 measurements.
(§13) Initial velocity of enzyme reaction V: Subtract the background reading (Min wells) without enzyme from each fluorescence intensity reading, and then perform on a linear regression analysis on each compound concentration group. The slope is the initial velocity of enzyme reaction (V) at each compound concentration.
(§14) Dose-effect curve and IC50 calculation of compounds: The initial velocity of enzyme reaction under the effect of each concentration of compounds was subjected to nonlinear regression fitting. The IC50 (half-maximal inhibitory concentration) of each compound was calculated using the formula […] (Vi: the initial velocity of enzyme reaction at each compound concentration; V0: initial velocity of enzyme reaction without the compound (Max wells). The software used was Graphpad prism 8.

In assay [12] the target is T1, CTX-M-15 (Escherichia coli, UniProt Q9EXV5).
T1 construct: purchased GenScript Biotech Co., Ltd
The assay is described as follows: Enzyme activity test (FC5 fluorescent substrate), CTX-M-15. Format: biochemical. Conditions: enzyme 45 pM, substrate FC5 50 μM. Here is the method:
as §1, §2, §3, §4, §5, §6, §7, §8, §9, §10, §11, §12, §13, §14

For assay [13], the target named is T2, VIM-1 (Pseudomonas aeruginosa, UniProt A0A0F7KYQ8).
T2 construct: purchased GenScript Biotech Co., Ltd
Briefly: Enzyme activity test (FC5 fluorescent substrate), VIM-1. Type of assay: biochemical. Conditions: enzyme 70 pM, substrate FC5 10 μM. Here is the method:
as §1, §2, §3, §4, §5, §6, §7, §8, §9, §10, §11, §12, §13, §14

The target of assay [14] is T3, OXA-48 (Klebsiella pneumoniae, UniProt Q6XEC0).
T3 construct: purchased GenScript Biotech Co., Ltd
Briefly: Enzyme activity test (FC5 fluorescent substrate), OXA-48. Format: biochemical. Conditions: enzyme 650 pM, substrate FC5 125 μM. Here is the method: as §1, §2, §3, §4, §5, §6, §7, §8, §9, §10, §11, §12, §13, §14

Assay [15] addresses T4, OXA-23 (Acinetobacter baumannii, UniProt Q9L4P2).
T4 construct: purchased GenScript Biotech Co., Ltd
The assay is described as follows: Enzyme activity test (FC5 fluorescent substrate), OXA-23. Type of assay: biochemical. Conditions: enzyme 650 pM, substrate FC5 50 μM. Here is the method:
as §1, §2, §3, §4, §5, §6, §7, §8, §9, §10, §11, §12, §13, §14

For assay [16], the target named is T5, NDM-1 (Klebsiella pneumoniae, UniProt C7C422).
T5 construct: purchased GenScript Biotech Co., Ltd
The assay is described as follows: Enzyme activity test (FC5 fluorescent substrate), NDM-1. Format: biochemical. The note with it: enzyme 6 pM, substrate FC5 15 μM, MBL buffer. The method, then: as §1, §2, §3, §4, §5, §6, §7, §8, §9, §10, §11, §12, §13, §14

For assay [17], the target named is T6, VIM-2 (Escherichia coli, UniProt Q5U7L7).
T6 construct: purchased GenScript Biotech Co., Ltd
Briefly: Enzyme activity test (FC5 fluorescent substrate), VIM-2. Format: biochemical. Conditions: enzyme 25 pM, substrate FC5 20 μM. The method, then: as §1, §2, §3, §4, §5, §6, §7, §8, §9, §10, §11, §12, §13, §14

The target in assay [18] is T7, OXA-10 (Pseudomonas aeruginosa, UniProt P14489).
T7 construct: purchased GenScript Biotech Co., Ltd
Briefly: Enzyme activity test (FC5 fluorescent substrate), OXA-10. Type of assay: biochemical. Conditions: enzyme 350 pM, substrate FC5 50 μM. Here is the method:
as §1, §2, §3, §4, §5, §6, §7, §8, §9, §10, §11, §12, §13, §14

Assay [19] addresses T8, KPC-2 (Klebsiella pneumoniae, UniProt Q9F663).
T8 construct: purchased GenScript Biotech Co., Ltd
Briefly: Enzyme activity test (FC5 fluorescent substrate), KPC-2. Format: biochemical. The note with it: enzyme 45 pM, substrate FC5 25 μM. The method, then:
as §1, §2, §3, §4, §5, §6, §7, §8, §9, §10, §11, §12, §13, §14

Assay [20] concerns the target T9, IMP-1 (Serratia marcescens, UniProt P52699).
T9 construct: purchased GenScript Biotech Co., Ltd
The assay is described as follows: Enzyme activity test (FC5 fluorescent substrate), IMP-1. Format: biochemical. Conditions: enzyme 20 pM, substrate FC5 15 μM. Here is the method: as §1, §2, §3, §4, §5, §6, §7, §8, §9, §10, §11, §12, §13, §14

For assay [21], the target named is NDM-5 (Klebsiella pneumoniae, UniProt C7C422, M154L/V88L). Briefly: Enzyme activity test (FC5 fluorescent substrate), NDM-5. Format: biochemical. The method, then: as §1, §2, §3, §4, §5, §6, §7, §8
e) The 384-well plate was centrifuged quickly and incubated for 10 minutes at room temperature. […]
as §11, §12
Initial velocity of enzyme reaction V: Subtract the background reading (Min wells) without enzyme from each fluorescence intensity reading, and then perform on a linear regression analysis on each compound concentration group. […]
as §14

T3 sequence (Q6XEC0 23-265 limits assumed): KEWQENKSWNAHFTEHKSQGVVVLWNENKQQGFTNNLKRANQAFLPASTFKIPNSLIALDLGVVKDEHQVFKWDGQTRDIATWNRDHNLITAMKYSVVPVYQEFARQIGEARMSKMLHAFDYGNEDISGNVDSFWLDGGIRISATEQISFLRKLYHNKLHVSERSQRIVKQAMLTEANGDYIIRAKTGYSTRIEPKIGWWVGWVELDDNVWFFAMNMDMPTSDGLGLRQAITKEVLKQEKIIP
Sequence of NDM-5 (C7C422 29-270 V88L/M154L): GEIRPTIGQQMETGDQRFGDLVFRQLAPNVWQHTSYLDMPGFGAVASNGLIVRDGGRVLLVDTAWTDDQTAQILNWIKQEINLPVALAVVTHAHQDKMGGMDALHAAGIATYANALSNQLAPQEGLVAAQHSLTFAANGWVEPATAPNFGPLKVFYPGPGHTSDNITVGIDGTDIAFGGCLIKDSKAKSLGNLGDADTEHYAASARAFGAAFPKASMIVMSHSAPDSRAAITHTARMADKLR
T7 sequence (P14489 20-266): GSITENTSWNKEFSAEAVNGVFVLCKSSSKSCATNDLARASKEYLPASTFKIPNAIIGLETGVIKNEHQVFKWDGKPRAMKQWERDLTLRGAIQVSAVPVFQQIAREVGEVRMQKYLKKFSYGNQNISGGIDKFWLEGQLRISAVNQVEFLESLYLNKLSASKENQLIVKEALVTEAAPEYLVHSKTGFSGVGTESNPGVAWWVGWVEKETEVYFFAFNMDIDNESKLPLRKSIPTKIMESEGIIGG
T1 sequence (Q9EXV5 entry or part of it): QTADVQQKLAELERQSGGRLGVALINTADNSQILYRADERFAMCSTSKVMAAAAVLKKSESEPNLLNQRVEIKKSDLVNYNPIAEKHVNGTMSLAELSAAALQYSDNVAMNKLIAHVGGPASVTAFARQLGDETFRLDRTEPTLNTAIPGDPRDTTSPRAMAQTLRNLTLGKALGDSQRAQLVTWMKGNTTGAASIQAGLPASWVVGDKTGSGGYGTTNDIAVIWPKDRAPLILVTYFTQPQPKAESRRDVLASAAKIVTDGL
T8 sequence (Q9F663 25-293 limits assumed): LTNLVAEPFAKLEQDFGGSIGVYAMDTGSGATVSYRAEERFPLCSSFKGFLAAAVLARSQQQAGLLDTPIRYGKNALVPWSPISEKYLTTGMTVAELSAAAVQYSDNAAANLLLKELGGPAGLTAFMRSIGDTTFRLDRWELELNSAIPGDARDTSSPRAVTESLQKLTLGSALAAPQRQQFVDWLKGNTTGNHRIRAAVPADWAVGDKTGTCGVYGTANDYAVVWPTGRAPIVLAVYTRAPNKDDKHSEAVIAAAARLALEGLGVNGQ
T5 sequence (C7C422 29-270 limits assumed): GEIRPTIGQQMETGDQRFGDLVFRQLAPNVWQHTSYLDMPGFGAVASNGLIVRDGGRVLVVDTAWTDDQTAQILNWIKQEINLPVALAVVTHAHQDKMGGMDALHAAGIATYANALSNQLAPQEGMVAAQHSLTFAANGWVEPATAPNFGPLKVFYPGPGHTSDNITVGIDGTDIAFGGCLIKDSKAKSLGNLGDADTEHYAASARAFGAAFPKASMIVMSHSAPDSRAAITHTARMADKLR
T4 sequence (Q9L4P2 18-273): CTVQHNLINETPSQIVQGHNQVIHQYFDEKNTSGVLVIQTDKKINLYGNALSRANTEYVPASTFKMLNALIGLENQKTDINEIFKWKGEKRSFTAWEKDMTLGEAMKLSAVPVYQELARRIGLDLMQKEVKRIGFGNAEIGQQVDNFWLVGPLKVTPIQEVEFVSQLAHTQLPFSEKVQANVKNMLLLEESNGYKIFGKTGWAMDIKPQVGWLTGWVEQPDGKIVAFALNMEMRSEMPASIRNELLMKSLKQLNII
T9 sequence (P52699 19-246 limits assumed): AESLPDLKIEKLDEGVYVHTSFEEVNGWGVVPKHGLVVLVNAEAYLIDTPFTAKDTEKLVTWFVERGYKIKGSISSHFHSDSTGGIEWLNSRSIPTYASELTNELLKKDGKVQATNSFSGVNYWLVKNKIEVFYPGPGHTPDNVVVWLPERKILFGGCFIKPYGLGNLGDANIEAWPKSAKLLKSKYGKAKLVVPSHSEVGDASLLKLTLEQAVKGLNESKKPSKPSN

For the compound `C[C@@H](O)[C@H]1C(=O)N2C(C(=O)[O-])=C(SC3Cn4cnc[n+]4C3)[C@H](C)[C@H]12` (stereo partly shown) [Biapenem, biapenem], the MIC in assay [1] came to 32 µg/mL; in assay [2], 16 µg/mL; in [3], 32 µg/mL; in [4], 32 µg/mL; in [5], 16 µg/mL; in assay [6], 32 µg/mL. Also, the MIC amounted to 64 µg/mL in [7], 4 µg/mL in assay [8], 32 µg/mL in assay [9] and 8 µg/mL in [10].
Turning to `CO/N=C(\C(=O)N[C@@H]1C(=O)N2C(C(=O)[O-])=C(C[N+]3(C)CCCC3)CS[C@H]12)c1csc(N)n1` [Cefepime], the MIC was 128 µg/mL in assay [1]; 128 µg/mL in [2]; 128 µg/mL in assay [3]; 64 µg/mL in [4]; greater than 64 µg/mL in [5]; 128 µg/mL in assay [6]. For the same compound, the MIC in assay [7] is 32 µg/mL; in assay [8], greater than 128 µg/mL; in assay [9], greater than 128 µg/mL; in assay [10], greater than 64 µg/mL.
On to `CSc1ccc2c(c1C(=O)O)OB(O)[C@@H]1C[C@H]21` [Compound 1], for which the IC50 is 17.2 nM in assay [11]; 1.3 nM in assay [12]; 1.5 nM in assay [13]; 0.2 nM in assay [14]; 0.8 nM in assay [15]; 13.1 nM in assay [16]. The IC50 in assay [17] is 0.1 nM; in assay [18], 10 nM; in assay [19], 1.2 nM; in [20], less than 5.1 nM; in [21] it was 15.3 nM.
